# Experimental data as given in US12496303B2, “Conditioning agents for use in allogeneic hematopoietic stem cell transplantation” (priority 2020, dated 2025).
# How the values were obtained:
# [1] = MHC-mismatched haploidentical allo-HSCT (CB6F1→B6); type: in vivo, mouse
# Method: (§1) To investigate the efficacy of ADCs for allo-HSCT conditioning, two transplant models were used (see e.g., FIG. 2A): a miHA-mismatched BALB/c-Ly5.1→DBA/2 model and a haploidentical CB6F1→B6 (F1-to-parent) model MHC-mismatched for H-2d in the host-versus-graft direction. CD45-SAP was chosen for conditioning in these studies to leverage its lymphodepleting activity to overcome graft rejection.
# (§2) Mice were injected with CD45-SAP or cKit-SAP at doses indicated in each figure at 7 days pre-transplant (d-7). In general, 3 mg/kg (75 μg) CD45-SAP, and 0.4 mg/kg or 2 mg/kg (10 or 50 μg, respectively) cKit-SAP were used. On transplant day (d0), mice received 10×10^6 whole donor bone marrow cells via the retroorbital injection.
# (§3) CD4^+ and CD8^+ T cell depletion was done using clones GK1.5 and YTS169.4, respectively, and NK cell depletion done using clone PK136. […] All antibodies were administered intraperitoneally at 250 μg per dose following the schema for each experiment.
# (§4) Immediately prior to injection, these DMSO stocks were thawed, diluted 1:10 in PBS, and injected at 200 μl/mouse subcutaneously (400 μg daily dose).
# ALZET subcutaneous osmotic pumps (Model 2004) were used to continuously deliver JAK1/2 inhibitors to mice for 28 days at a rate of 0.25 μL/hour (6 μL/day). A vehicle of 50% dimethyl sulfoxide (DMSO)/50% polyethylene glycol 400 (PEG-400) was used for all experiments. JAK1/2 inhibitors were prepared at 2× concentration (133.3 mg/mL) in 100% DMSO then diluted to 1× with an equal volume of PEG-400 (66.7 mg/mL, 400 μg total daily dose). Prepared compounds were then loaded into osmotic pumps per the manufacturer's instructions and surgically implanted in accordance with our IACUC-approved protocol.
# [2] = test system: IL-15-stimulated B6 splenic NK cells; experiment: functional assays of cytokine-stimulated splenic NK cells; type: cell-based, mouse
# Method: FIG. 5A-FIG. 5H. […] Data points and error bars represent mean±SEM.
# Cytokine concentrations in culture supernatant or mouse plasma were measured with the LegendPLEX Inflammation Panel (13-plex) or the Mouse Th1 Panel (5-plex) per the manufacturer protocols (BioLegend). Quantification was done using LegendPLEX software v8.0 for Windows. If a cytokine concentration was too low to be quantified, the sample was assigned the value of the lower limit of quantitation. For intracellular IFNγ analysis of splenic NK cells, cells were cultured in K10 media with or without cytokine stimulation for 15 hours, with 5 μg/mL Brefeldin A (BioLegend) added to each well for the last 2.5 hours. After this incubation period, cells were fixed, saponin-permeabilized, and stained as described above.
# [3] = test system: αCD3-stimulated B6 T cells; experiment: αCD3-stimulated CFSE-labeled T cell culture; type: cell-based, mouse; settings: 72 hours, highest tested dose
# Method: FIG. 4A-FIG. 4E. […] (B) Donor chimerism in spleen and bone marrow of mice from panel (A). […] (D) Proliferation and viability of cultures in (C). (E) Cytokines present in supernatants collected from cultures described in (C) after 24 hours incubation. For (C-E), data from three technical replicates are shown from one representative of four experiments. For all panels, data points and error bars represent mean±SEM.
# For ex vivo stimulation of primary mouse T cells, 1×10^5 T cells purified from spleen and lymph nodes with the EasySep Mouse T cell Isolation Kit (Stem Cell Technologies; Vancouver, BC, Canada) were cultured with 4×10^5 T-depleted splenocytes in 96-well round bottom plates in R10 media with 1 μg/mL αCD3. Supernatants were collected for cytokine analysis after 24 hours incubation, and cultured cells were analyzed for expansion by flow cytometry at 72 hours.
# Cytokine concentrations in culture supernatant or mouse plasma were measured with the LegendPLEX Inflammation Panel (13-plex) or the Mouse Th1 Panel (5-plex) per the manufacturer protocols (BioLegend). Quantification was done using LegendPLEX software v8.0 for Windows. If a cytokine concentration was too low to be quantified, the sample was assigned the value of the lower limit of quantitation. […]
# [4] = test system: NK cell-mediated rejection; experiment: parent-to-F1 allo-HSCT (B6→CB6F1), NK cell-mediated rejection; type: in vivo, mouse; settings: CD45-SAP plus baricitinib
# Method: as §2, §3, §4
# [5] = minor- and major-mismatched alloHSCT models, summary statements; type: in vivo, mouse
# Description: This example describes the combination of JAK1/JAK2 (JAK1/2) inhibitors and CD45-ADC.
# [6] = solubility testing of baricitinib in osmotic pump vehicles; type: physicochemical
# [7] = acute effects of four days daily baricitinib on blood and lymphoid organs; type: in vivo, B6 mice
# Description: FIG. 16A-FIG. 16G. […] The color scheme in the legend (upper-right) is used throughout the figure. (A and B) Complete blood counts (A) and organ cellularity of spleen and bone marrow (B). (C) Proportions of HSPC subsets in bone marrow. (D) Absolute B, T, and myeloid (Gr1+ and/or CD11b+) cell counts in spleen, blood, and bone marrow. (E) Frequencies of FoxP3+ Tregs (relative to total CD4+ T cells) in spleen, blood and bone marrow. (F and G) Cell surface phenotyping of splenic T cells (F) and APCs (G). Data points and error bars represent mean±SEM, with mice pooled across 3 experiments. For statistical comparison: ns=not significant, * is p<0.05, ** is p<0.01, *** is p<0.001, and **** is p<0.0001.
# as §4
# [8] = fully MHC-mismatched allo-HSCT (BALB/c→B6), preliminary; type: in vivo, mouse; settings: continuous baricitinib plus CD45-SAP conditioning, preliminary (not shown)
# Description: Continued optimization of our conditioning regimens aims to achieve robust, high-level engraftment in fully haploidentical (F1-to-F1) and fully MHC-mismatched allo-HSCT.
# [9] = miHA-mismatched allo-HSCT (BALB/c-Ly5.1→DBA/2); type: in vivo, mouse; settings: CD45-SAP conditioning plus daily baricitinib
# Method: as §1, §2, §3, §4
# [10] = CD45-ADC single dose d-7 plus baricitinib for 3-4 weeks
smiles,measurement,setting,value
CCS(=O)(=O)N1CC(CC#N)(n2cc(-c3ncnc4[nH]ccc34)cn2)C1 [baricitinib],overall donor chimerism,"[1]; CD45-SAP plus continuously-infused baricitinib (osmotic pump, 400 μg daily)",> 80%
same,overall donor chimerism,"[1]; CD45-SAP, daily baricitinib and pre-transplant pan-TCD",> 90%
same,engraftment rate,[1]; continuous baricitinib plus CD45-SAP,~70%
same,nonspecific toxicity in unstimulated NK cultures,[2],modest and noted only at the highest baricitinib doses
same,cell death in unstimulated cultures,[3],only subtly increased
same,overall donor chimerism,[4],~60%
same,donor chimerism,[5]; [10],up to 90%
same,share of treated mice achieving the donor chimerism,[5]; [10],at least 70 % of the mice
same,"donor chimerism, multilineage alloengraftment",[5]; CD45-targeted ADCs combined with baricitinib,80-90%
same,solubility,[6]; DMSO mixed 1:1 with PEG-400,readily soluble
same,solubility after incubation,"[6]; DMSO/PEG-400 vehicle, 30-day incubation at 37° C.",remained soluble
same,immunophenotyping of splenic T cell and APC compartments,[7]; baricitinib- vs vehicle-treated,no differences
same,B cells in spleens,[7]; daily baricitinib 4 days,lower frequencies of B cells
same,CBCs or bone marrow cellularity,[7]; daily baricitinib 4 days,minimally affected
same,bone marrow HSPC numbers,[7]; daily baricitinib 4 days,largely unaffected
same,spleen cellularity,[7]; daily baricitinib 4 days,significant reduction
same,frequencies of long-term HSC and megakaryocyte-erythroid progenitors,"[7]; daily baricitinib 4 days, bone marrow",somewhat lower frequencies
same,engraftment success,[8],~25%
same,overall multilineage donor chimerism of engrafted mice,[9],~80%
